Molecules are shown by their SMILES.

Assay [1] can be described thus: Inhibition of perforin in human KHYG-1 cells pre-treated with compound for 20 mins assessed as reduction in KHYG-1 cells-mediated cell lysis of human K562 cells measured after 4 hrs by 51Cr release based gamma counting method.
Assay [2] in a line: Inhibition of perforin (unknown origin) assessed as reduction in perforin-mediated cell lysis in human Jurkat T cells incubated for 30 mins by 51Cr release based gamma counting method.

Turning to `CN1Cc2cc(-c3ccc(-c4cncc(NS(=O)(=O)c5ccc(F)cc5F)c4)s3)cnc2C1=O`, the IC50 (as a rule, the concentration at which inhibition is half-maximal) in assay [1] came to 7.5 µM; in assay [2], 4.3 µM. Consider `O=C1NCc2ncc(-c3ccc(-c4cncc(NS(=O)(=O)c5ccc(F)cc5F)c4)s3)cc21`, for which the figures for the IC50 in assay [1] and in assay [2] were 6.8 µM and more than 20 µM, respectively. With `O=C1c2ccc(-c3ccc(-c4cncc(NS(=O)(=O)c5ccc(F)cc5F)c4)s3)cc2CN1CCN1CCCCC1`, in assay [2], the IC50 was more than 20 µM. On the same count and under the same terms, next, `O=C1c2ccc(-c3ccc(-c4cncc(NS(=O)(=O)c5ccc(F)cc5F)c4)s3)cc2CN1CCN1CCCC1`: more than 20 µM.

As for `CN1Cc2cc(-c3ccc(-c4cncc(NS(=O)(=O)c5ccccc5C(F)(F)F)c4)s3)cnc2C1=O`, the results for the IC50 in assay [1] and in assay [2] were 3.3 µM and 1.38 µM, respectively.

As to `COc1ncc(-c2ccc(-c3cnc4c(c3)CN(C)C4=O)s2)cc1NS(=O)(=O)c1ccccc1[N+](=O)[O-]`, the IC50 in assay [1] came to 1.6 µM; in assay [2] it was 2.3 µM. `O=C1c2ccc(-c3ccc(-c4cncc(NS(=O)(=O)c5ccc(F)cc5F)c4)s3)cc2CN1CC(O)CO` (configuration not stated): the IC50 in assay [2] was 14.2 µM. Still for that read-out and setting: next, `O=C1c2ccc(-c3ccc(-c4cncc(NS(=O)(=O)c5ccc(F)cc5F)c4)s3)cc2CN1CCCO`: more than 20 µM. On the same count and under the same terms, next, `O=C1NCc2cc(-c3ccc(-c4cncc(NS(=O)(=O)c5ccc(F)cc5F)c4)s3)cnc21`: 5.73 µM; `CN1CCN(CCN2Cc3cc(-c4ccc(-c5cncc(NS(=O)(=O)c6ccc(F)cc6F)c5)s4)ccc3C2=O)CC1`: more than 20 µM. In the case of `COc1ncc(-c2ccc(-c3cnc4c(c3)CN(C)C4=O)s2)cc1NS(=O)(=O)c1ccc(F)cc1F`, the IC50 was 4.43 µM in assay [1] and 3.34 µM in assay [2]. Regarding `O=C1c2ccc(-c3ccc(-c4cncc(NS(=O)(=O)c5ccc(F)cc5F)c4)s3)cc2CN1CCN1CCOCC1`, in assay [2], the IC50 was 17 µM. On the same count and under the same terms, next, `CN(C)CCN1Cc2cc(-c3ccc(-c4cncc(NS(=O)(=O)c5ccc(F)cc5F)c4)s3)ccc2C1=O`: more than 20 µM.

With `CN1Cc2cc(-c3ccc(-c4cncc(NS(=O)(=O)c5cccc(C(F)(F)F)c5)c4)s3)cnc2C1=O`, the IC50 in assay [1] is 3.4 µM; in assay [2], more than 20 µM. The corresponding values for `COc1ncc(-c2ccc(-c3cnc4c(c3)CN(C)C4=O)s2)cc1NS(=O)(=O)c1ccccc1C(F)(F)F` are 2.21 µM and 0.78 µM.

The values are drawn from BindingDB's records for doi:10.1021/acs.jmedchem.9b00881 (University of Auckland, 2020).
